Source: ChEMBL document CHEMBL6178021, “Optimization of Tambjamines Active against Multiple Stages of Malaria Parasites” (J Med Chem, 2025)
Values after ≈ are worked out from the molar mass of the structure shown.

What was measured:
[1] = Solubility of the compound in potassium phosphate buffer at pH 7.4 by UV-vis spectroscopy
Plasmodium yoelii [2] = assay: Antimalarial activity against erythrocytic Plasmodium yoelii MRA-428 infected in CF1 mouse assessed as cured mouse at 25 mg/kg, po once daily for 4 days measured on day 28 day; assay type: functional, organism-based; conditions: time 4.0 day
[3] = Metabolic stability in human liver microsomes assessed as half life measured up to 60 mins by LC/MS analysis; assay type: ADME, Microsome
in vitro [4] = conditions: human, liver microsomes
Plasmodium falciparum [5] = assay: microbe, parasite or virus in culture; conditions: Dd2, 72 h
Description: Antiplasmodial activity against asexual blood-stage Plasmodium falciparum Dd2 using 2% haematocrit and 0.2% parasitemia assessed as reduction in fluorescence measured after 72 hrs by Malaria SYBR Green I-based Fluorescence (MSF) assay

Plasmodium falciparum [6] = assay: microbe, parasite or virus in culture; conditions: D6, 72 h
Description: Antiplasmodial activity against asexual blood-stage Plasmodium falciparum D6 using 2% haematocrit and 0.2% parasitemia assessed as reduction in fluorescence measured after 72 hrs by Malaria SYBR Green I-based Fluorescence (MSF) assay

MDR1 (human) [7] = assay: (§1) Apparent permeability across apical to basolateral side in MDCK transfected with human MDR1 cells incubated for 1 hr by LC-MS analysis; conditions: dog, MDCK-MDR1
HepG2 = assay: (§2) Cytotoxicity against human HepG2 cells assessed as cell viability measured after 48 hrs by MTT assay; assay type: toxicity, cell-based; conditions: hepg2
Plasmodium yoelii [8] = assay: Antimalarial activity against erythrocytic Plasmodium yoelii MRA-428 infected in CF1 mouse assessed as reduction in parasitemia at 10 mg/kg, po once daily for 4 days measured on day 5; assay type: functional; parameters: scale not given: the % may be the effect or the level left; conditions: time 4 day
Plasmodium yoelii [9] = assay: Antimalarial activity against erythrocytic Plasmodium yoelii MRA-428 infected in CF1 mouse assessed as reduction in parasitemia at 25 mg/kg, po once daily for 4 days measured on day 5; assay type: functional; parameters: scale not given: the % may be the effect or the level left; conditions: time 4 day
[10] = (§3) Apparent permeability across basolateral to apical side in MDCK transfected with human MDR1 cells incubated for 1 hr by LC-MS analysis; conditions: dog, mdck, 1 h
[11] = Metabolic stability in mouse liver microsomes assessed as half life measured up to 60 mins by LC/MS analysis; assay type: ADME, Microsome
Plasmodium yoelii [12] = assay: Antimalarial activity against erythrocytic Plasmodium yoelii MRA-428 infected in CF1 mouse assessed as reduction in parasitemia at 50 mg/kg, po once daily for 4 days measured on day 5; assay type: functional; parameters: scale not given: the % may be the effect or the level left; conditions: time 4 day
Plasmodium falciparum [13] = assay: Antiplasmodial activity against asexual blood-stage Plasmodium falciparum Tm90-C2B using 2% haematocrit and 0.2% parasitemia assessed as reduction in fluorescence measured after 72 hrs by Malaria SYBR Green I-based Fluorescence (MSF) assay; assay type: functional, organism-based
Plasmodium yoelii [14] = assay: Antimalarial activity against erythrocytic Plasmodium yoelii MRA-428 infected in CF1 mouse assessed as cured mouse at 50 mg/kg, po once daily for 4 days measured on day 28 day; assay type: functional, organism-based; conditions: time 4.0 day
in vitro [15] = conditions: mouse, liver microsomes
MDR1 (human) [16] = assay: Efflux ratio, ratio of apparent permeability across apical to basolateral side over basolateral to apical side in MDCK transfected with human MDR1 cells incubated for 1 hr by LC-MS analysis; conditions: dog
in vitro [17] = conditions: human
Description: Selectivity index, ratio of IC50 for cytotoxicity against human HepG2 cells to IC50 for antiplasmodial activity against asexual blood-stage Plasmodium falciparum D6

Plasmodium yoelii [18] = assay: Antimalarial activity against erythrocytic Plasmodium yoelii MRA-428 infected in CF1 mouse assessed as reduction in parasitemia at 80 mg/kg, po once daily for 4 days measured on day 5; assay type: functional; parameters: scale not given: the % may be the effect or the level left; conditions: time 4 day
Plasmodium yoelii [19] = assay: Antimalarial activity against erythrocytic Plasmodium yoelii MRA-428 infected in CF1 mouse assessed as cured mouse at 80 mg/kg, po once daily for 4 days measured on day 28 day; assay type: functional, organism-based; conditions: time 4.0 day
MDR1 (human) [20] = assay: as §3; conditions: dog, MDCK-MDR1
[21] = as §1; conditions: dog, mdck, 1 h
[22] = as §2; assay type: toxicity, cell-based; conditions: human, HepG2 cells
Plasmodium berghei [23] = assay: Anti-malarial activity against Luciferase-expressing Plasmodium berghei sporozoites inoculated in po dosed Albino C57BL/6 mouse malaria model assessed as elimination of parasites in liver by measuring bioluminescence signal measured after 48 hrs; assay type: functional, organism-based
Plasmodium berghei [24] = assay: Anti-malarial activity against Luciferase-expressing Plasmodium berghei sporozoites inoculated in po dosed Albino C57BL/6 mouse malaria model assessed as elimination of parasites in blood by measuring bioluminescence signal measured after 72 hrs; assay type: functional, organism-based

Compound | solubility ([1]; buffer) [µM] | Activity (Plasmodium yoelii [2]) | half-life [3] [h] | microsomal CLint at 1 h (in vitro [4]) [µL/min/mg] | IC50 (Plasmodium falciparum [5]) [nM] | IC50 (Plasmodium falciparum [6]) [nM] | Papp A→B at 1 h (MDR1 (human) [7]) [×10⁻⁶ cm/s] | IC50 (HepG2) [nM] | Activity (Plasmodium yoelii [8]) [%] | Activity (Plasmodium yoelii [9]) [%] | Papp [10] | half-life [11] [h] | Activity (Plasmodium yoelii [12]) [%] | IC50 (Plasmodium falciparum [13]) [nM] | Activity (Plasmodium yoelii [14]) | microsomal CLint at 1 h (in vitro [15]) [µL/min/mg] | efflux ratio at 1 h (MDR1 (human) [16]) | selectivity ratio (in vitro [17]) | Papp [21] | other results
CCC1=C(CC)/C(=C/NC2CCCCCC2)N=C1c1ccc(C)[nH]1 | 35.9 (≈ 11.7 µg/mL) | Not active; None Of The Mouse Cured Out Of Four Tested | > 1 | 18.3 | 3.83 | 4.47 | 0.007 | 4220 | 92.2 | 100 | 0.45 ×10⁻⁶ cm/s | > 1 | 100 | 9.02 | Not active; None Of The Mouse Cured Out Of Four Tested | 16.6 |  |  |  | 
CCC1=C(CC)/C(=C/NC2CCCCC2)N=C1c1ccc(Br)[nH]1 | 4.46 (≈ 1.68 µg/mL) |  | > 1 |  | 336 |  | 0.004 |  |  |  | 0.15 ×10⁻⁶ cm/s | > 1 |  | 172 |  | 16 | 0.038 |  |  | 
CCC1=C(CC)/C(=C/NC23C[C@H]4C[C@@H](C2)C[C@@H](C3)C4)N=C1c1ccc(Br)[nH]1 | 25.8 (≈ 11.1 µg/mL) |  | > 1 | 14.4 | 24.6 | 18.1 | 0.002 | 4020 | 33.1 | 67.1 | 0.39 ×10⁻⁶ cm/s | > 1 |  | 15.6 |  | 7.36 | 0.23 | 222 |  | 
CCC1=C(CC)/C(=C/NC2CCCCCCC2)N=C1c1ccc(CC)[nH]1 | < 3.125 | Not active; None Of The Mouse Cured Out Of Four Tested | > 1 | 7 | 7.21 | 15.9 |  | 2720 | 63.1 | 100 | 0.28 ×10⁻⁶ cm/s | > 1 | 100 | 7.8 | Not active; None Of The Mouse Cured Out Of Four Tested | 14.6 |  |  |  | 
CCC1=C(CC)/C(=C/N[C@H]2CC[C@H](C)CC2)N=C1c1ccc[nH]1 | 205 (≈ 63.9 µg/mL) | Active; Two Mouse Cured Out Of Four |  | 59.5 | 89.3 | 67.9 | 0.015 |  | 88.8 | 100 |  |  | 100 | 97.1 | Active; Two Mouse Cured Out Of Four | 37 | 8.7 | 235 |  | Activity (Plasmodium yoelii [18]): 100%; Activity (Plasmodium yoelii [19]): Not active; None Of The Mouse Cured Out Of Four Tested; Papp B→A at 1 h (MDR1 (human) [20]): 0.13 ×10⁻⁶ cm/s
COc1ccc(Cc2ccc(C3=N/C(=C\NC4CCCCCC4)C4=C3CCCC4)[nH]2)cc1 | 11.4 (≈ 4.9 µg/mL) |  | > 1 | 3.18 | 5.56 | 6.1 |  | 1340 | 0 | 0 |  | > 1 |  | 2.8 |  | 2.07 |  |  | 0.7 ×10⁻⁶ cm/s | 
CCC1=C(CC)/C(=C/NC23C[C@H]4C[C@@H](C2)C[C@@H](C3)C4)N=C1c1cc2cc(Cl)ccc2[nH]1 | 18.3 (≈ 7.94 µg/mL) |  | > 1 | 8.8 | 133 | 106 | 0.002 | 5020 |  |  | 0.85 ×10⁻⁶ cm/s | > 1 |  | 175 |  | 4.72 | 0.37 | 47 |  | 
CCC1=C(CC)/C(=C/NC23CC4CC(CC(C4)C2)C3)N=C1c1cc2ccccc2[nH]1 |  |  | > 1 | 4.02 | 59.3 | 70.2 |  |  |  |  |  | 0.818 |  | 410 |  | 28.3 | 0.14 | 99.8 | 0.58 ×10⁻⁶ cm/s | solubility ([1]; potassium phosphate buffer): 11.5 µM (≈ 4.6 µg/mL); IC50 at 48 h [22]: 7010 nM
[2H]C([2H])(C)c1ccc(C2=N/C(=C\NC3CCCCCC3)C(C)=C2C)[nH]1 | 42 (≈ 13.2 µg/mL) |  | > 1 | 14 | 5.91 | 5.08 |  | 6550 | 78.5 | 96.5 | 0.007 10^-6 cm/s | > 1 |  | 10.1 |  | 16 |  |  | 0.29 10^-6 cm/s | 
CCC1=C(CC)/C(=C/NC2CCCCCC2)N=C1c1ccc(Cc2ccc(OC)cc2)[nH]1 | 20.5 (≈ 8.85 µg/mL) |  | > 1 | 2.23 | 8.42 | 9.93 |  | 4340 | 0 | 0 |  | > 1 |  | 16.3 |  | 2.27 |  |  | 0.18 ×10⁻⁶ cm/s | 
CCc1ccc(C2=N/C(=C\NC3CCCCCC3)C3=C2CCCC3)[nH]1 | 15.4 (≈ 5.2 µg/mL) | Not active; None Of The Mouse Cured Out Of Four Tested | > 1 | 8.31 | 1.36 | 4.8 |  | 1060 | 22.7 | 100 |  | > 1 | 100 | 1.74 | Not active; None Of The Mouse Cured Out Of Four Tested | 10.3 |  |  | 0.24 ×10⁻⁶ cm/s | Papp B→A at 1 h (MDR1 (human) [20]): 0.003 ×10⁻⁶ cm/s
CCC1=C(CC)/C(=C/NC2CCCCC2)N=C1c1ccc(Cc2ccc(OC)cc2)[nH]1 | 14.4 (≈ 6.01 µg/mL) |  | > 1 | 3.37 | 7.25 | 9.26 |  | 7810 | 0 | 0 | 0.43 ×10⁻⁶ cm/s | > 1 |  | 11.6 |  | 1.94 |  |  | 0.15 ×10⁻⁶ cm/s | 
COc1ccc(Cc2ccc(C3=N/C(=C\NC4CCCCCC4)C4=C3OCCO4)[nH]2)cc1 | 5.52 (≈ 2.39 µg/mL) |  | > 1 | 16.1 | 21.3 | 11.9 |  | 1480 | 1.5 |  | 0.57 ×10⁻⁶ cm/s | > 1 |  | 15.1 |  | 20.6 |  |  |  | 
CCC1=C(CC)/C(=C/NC23CC4CC(CC(C4)C2)C3)N=C1c1ccc[nH]1 |  | Active; Three Mouse Cured Out Of Four | > 1 |  | 1.01 | 1.6 |  |  | 82.5 | 100 |  | 0.267 | 100 |  | Active; Three Mouse Cured Out Of Four |  |  | 2440 |  | Activity (Plasmodium berghei [23]): Dose-dependent-effect; IC50 at 48 h [22]: 3900 nM; Activity (Plasmodium berghei [24]): Dose-dependent-effect; Activity (Plasmodium yoelii [18]): 100%; Activity (Plasmodium yoelii [19]): Active; Four Mouse Cured Out Of Four
